Measurements from PubChem BioAssay (NCI).
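How tested: cells in 96-well plates exposed to compound for 48 hours at five concentrations. TGI: total growth inhibition.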

Tests used:
Assay in all cases: NCI tumour cell line growth inhibition, 48 h
P388 leukemia = system: P388 leukemia
P388/ADR leukemia = system: P388/ADR leukemia
SN12K1 renal = system: SN12K1 renal

`CCN1CCCC(NCc2c3ccccc3c(CNC3CCCN(CC)C3)c3ccccc23)C1` (stereo not drawn) was tested, and the TGI (P388 leukemia) was 9.25 µM, the TGI (P388/ADR leukemia) was 33.8 µM and the TGI (SN12K1 renal) was 23.1 µM.
